Reference: patent publication US11040053B2, “Compositions and methods for activating “stimulator of interferon gene”13 dependent signalling” (CHINOOK THERAPEUTICS, INC., priority 2015, dated 2021)

Assays:
[1] = molecular target: T1, hSTING HAQ allele (Homo sapiens, UniProt Q86WV6, G230A/H232R/R293Q/R71H); test: IRF-3 inducible secreted luciferase reporter in THP1-Dual cells without digitonin; format: cell-based; conditions: for activity relative to OH reference compound, in words: Table 5 comment, THP1 cells without digitonin
T1 construct: a human monocyte cell line containing the hSTING HAQ allele; host or cells: THP1-Dual cells
In short: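 THP1-Dual cells were exposed for 30 min, washed, and cultured overnight at 37 °C in fresh RPMI/10% FBS. Secreted luciferase in the supernatant was read with QUANTI-Luc as the type I interferon signal. EC50 was taken from a 10-point serial-dilution dose-response curve.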

[2] = system: HIVgag p55 protein; test: Immunization with HIVgag p55 protein plus CDN, splenocyte IFNγ ELISPOT; format: in vivo, BALB/c mice; conditions: 1 μg or 5 μg CDN in AddaVax with 5 μg HIVgag p55 s.c., day 7 IFNγ ELISPOT, vs no CDN; for HIVgag p55 antigen specific CD4+ T-cell response, in words: FIG. 16A
Method: To determine whether the fluorinated derivatives could elicit HIVgag-specific CD4^+ and CD8^+ T cell responses, BALB/c mice (n=4) were immunized subcutaneously with 0 μg (no CDN), 1 μg or 5 μg of CDN formulated in 2% squalene-and-water (AddaVax, Invivogen) with 5 μg HIVgag p55 protein. Seven days following the vaccination, spleens were harvested from the mice and splenocytes prepared. 2×10^5 splenocytes were stimulated overnight in an IFNγELISPOT assay with media alone (unstimulated) or with 1 μM HIVgag p55 CD4^+ and CD8^+ specific peptides. IFNγ ELISPOTs were developed and quantified using a CTL plate reader and ImmunoSpot software. 3′3′-RR-(2′F-A)(2′F-A) and 3′3′-RR-(2′F-G)(2′F-A) were evaluated for their ability to induce HIVgag-specific immune responses.

[3] = molecular target: hSTING(REF) (Homo sapiens, UniProt Q86WV6); test: IFN-β luciferase reporter in HEK293T cells stably expressing hSTING(REF), digitonin permeabilization; conditions: FIGS. 6A-B, 0.1 μM to 100 μM and 6.25 μM CDN
Method: 24 hours later, cells were stimulated with native and synthetic CDN derivative molecules using digitonin permeabilization to ensure uniform uptake.
After 20 min, the stimulation mixtures were removed and 200 ul of DMEM media supplemented with 10% (vol/vol) fetal bovine serum, 1% L-Glutamine, and 1% Penicillin/Streptomycin was added. Cells were incubated an additional 6 hours (37° C., 5% CO2) and then cell lysates were prepared and reporter gene activity measured on a Spectramax M3 luminometer using the Dual-Glo Luciferase Assay System (Promega, catalog #E2920) as described by the manufacturer. IFNβ firefly luciferase reporter gene activity was normalized to TK renilla luciferase gene activity and plotted as fold induction over activity in unstimulated cells (mean+/−s.e.m.).

[4] = molecular target: hSTING(WT) (Homo sapiens, UniProt Q86WV6, H232R); test: Differential scanning fluorometry (DSF) binding to purified hSTING WT; set-up: DNA encoding amino acids 140-379 (amino acid numbering corresponding to Swiss Prot Q86WV6); 6xHIS (N, cleaved yes); SUMO (N, cleaved yes); made in house; host or cells: Rosetta2 (DE3) E. coli; conditions: for Tm shift compared with non fluorine substituted compounds and 2′3′-(G)(A), in words: FIG. 3, hSTING (WT); for binding relative to OH reference compound, in words / binding relative to naturally produced 2′3′-(G)(A), in words: Table 4 comment, wild type hSTING
[5] = system: B16.SIY cells; test: B16.SIY melanoma mouse model, intra-tumoral injection; format: in vivo, C57BL/6 mice
Method: To determine whether the derivative molecules elicit anti-tumor immunity, 6-8 week old female C57BL/6 mice (8 mice per group) were implanted with B16.SIY cells (5×10^5 cells in 100 μL PBS). Mice were treated with reference compound 3′3′-RR-(A)(A) and di-F compound 3′3′-RR-(2′F-A)(2′F-A) (5, 50, 100 μg in a total volume of 40 μL HBSS), or HBSS vehicle control. Treatments began when tumors reached a volume of approximately 100 mm^3, on day 9 post tumor implantation. The CDN compounds were administered by […] injection into the center of the tumor (IT) using a 27 gauge needle. Mice were bled on day 16 post tumor implantation and PBMCs were isolated by Ficoll gradient (Miltenyi Biotech). 1×10^5 PBMCs were pre-incubated with anti-CD16/32 monoclonal antibody to block potential nonspecific binding, and labeled with PE-MHC class I pentamer (Proimmune) consisting of murine H-2Kb complexed to […] (SIY, SEQ ID NO: 16) peptide, anti-TCRβ-AF700 (H57-597), anti-CD8-Pacific Blue (53-6.7), anti-CD4-Pacific Orange (RM4-5) (all antibodies from BioLegend) and the Fixable Viability Dye eFluor 450 (eBioscience). Stained cells were analyzed using FACS Versa cytometer with FACSDiva software (BD). Data analysis was conducted with FlowJo software (Tree Star).

T1 sequence (Q86WV6 whole entry R71H/G230A/H232R/R293Q): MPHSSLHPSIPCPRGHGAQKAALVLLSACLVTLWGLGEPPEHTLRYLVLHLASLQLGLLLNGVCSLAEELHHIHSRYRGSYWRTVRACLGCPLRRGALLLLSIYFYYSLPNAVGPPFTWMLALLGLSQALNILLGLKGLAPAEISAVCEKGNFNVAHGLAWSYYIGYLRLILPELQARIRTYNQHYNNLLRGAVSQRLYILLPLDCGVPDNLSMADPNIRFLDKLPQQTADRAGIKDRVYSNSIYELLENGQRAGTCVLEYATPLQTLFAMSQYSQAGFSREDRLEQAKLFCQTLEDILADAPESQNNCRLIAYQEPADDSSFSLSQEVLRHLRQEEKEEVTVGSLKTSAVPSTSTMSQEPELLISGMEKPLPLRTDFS
hSTING(WT), sequence (Q86WV6 140-379 H232R): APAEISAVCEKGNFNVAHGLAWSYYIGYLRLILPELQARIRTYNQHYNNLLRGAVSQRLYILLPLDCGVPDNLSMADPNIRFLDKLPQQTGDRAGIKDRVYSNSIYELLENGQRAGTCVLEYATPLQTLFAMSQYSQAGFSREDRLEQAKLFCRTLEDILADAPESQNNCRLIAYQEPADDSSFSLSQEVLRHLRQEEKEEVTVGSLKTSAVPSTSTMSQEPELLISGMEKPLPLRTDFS
hSTING(REF), sequence (Q86WV6 whole entry, the tested form may be a part): as the sequence (Q86WV6 whole entry R71H/G230A/H232R/R293Q) above, with H71R, A230G, R232H, Q293R counted along it

| SMILES | activity relative to OH reference compound, in words [1] | HIVgag p55 antigen specific CD4+ T-cell response, in words [2] | HIVgag p55 antigen specific CD8+ T-cell response, in words ([2]; FIG. 16B) | IFNβ luciferase reporter induction by hSTING(REF), in words [3] | Tm shift compared with non fluorine substituted compounds and 2′3′-(G)(A), in words [4] | binding relative to OH reference compound, in words [4] | binding relative to naturally produced 2′3′-(G)(A), in words [4] | EC50 ([1]; without digitonin in THP1 cells (HAQ allele)) | tumor volume / tumor growth, in words ([5]; FIG. 14A, IT injection 5, 50, 100 μg, established B16-SIY melanomas) | percent of SIY-specific CD8+ T cells in PBMCs, in words ([5]; FIG. 14B, 5 μg IT, day 7 post-IT injection, vs HBSS control) | hSTING Tm Shift WT ([4]; DSF, 1 mg/ml STING AA140-379, ligand 1 mM) |
| --- | --- | --- | --- | --- | --- | --- | --- | --- | --- | --- | --- |
| Nc1nc2c(ncn2[C@@H]2O[C@@H]3CO[P@@](=O)(S)O[C@H]4[C@@H](F)[C@H](n5cnc6c(N)ncnc65)O[C@@H]4CO[P@@](=O)(S)O[C@H]3[C@H]2F)c(=O)[nH]1 (stereo in doubt) [Compound 14, 2-Amino-9-((2R,3R,3aR,5R,7aR,9R,10R,10aR,12R,14aR)-9-(6-amino-9H-purin-9-yl)-3,10-difluoro-5,12-dimercapto-5,12-dioxidooctahydro-2H,7H-difuro [3,2-d:3′,2′-j][1,3,7,9]tetraoxa[2,8]diphosphacyclododecin-2-yl)-1,9-dihydro-6H-purin-6-one] | improved activity | eliciting significant CD4+ T cell responses against HIVgag p55 | elicited significant CD8^+ T cell responses against HIVgag p55 | strongly induced IFNβ reporter activity, to a level similar to the endogenous cellular ligand 2′3′-(G)(A) | increased Tm shift | improved binding | improved binding | – | – | – | – |
| Nc1ncnc2c1ncn2[C@@H]1O[C@@H]2CO[P@@](=O)(S)O[C@H]3[C@@H](F)[C@H](n4cnc5c(N)ncnc54)O[C@@H]3CO[P@@](=O)(S)O[C@H]2[C@H]1F [Compound 6, (2R,3R,3aR,5R,7aR,9R,10R,10aR,12R,14aR)-2,9-bis(6-amino-9H-purin-9-yl)-3,10-difluoro-5,12-dimercaptooctahydro-2H,7H-difuro[3,2-d:3′,2′-j][1,3,7,9]tetraoxa[2,8]diphosphacyclododecine 5,12-dioxide] | improved activity | eliciting significant CD4+ T cell responses against HIVgag p55 | – | strongly induced IFNβ reporter activity, to a level similar to the endogenous cellular ligand 2′3′-(G)(A) | increased Tm shift | improved binding | improved binding | 19 µM | rejected the growth of established B16-SIY melanomas at all doses | elicited significantly SIY-specific CD8^+ T cells | 19.3 °C |
